According to patent US6835733B2, “Tropane linked benzofuran derivatives” (Eli Lilly and Company, priority 1999, dated 2004):
Structures can show the parent of a compound that is named as a salt.

## COc1cccc2sc(C3=CC4CCC(C3)N4C[C@H](O)COc3cccc4occc34)cc12 (stereo partly shown) (as salt: oxalate)
  melting point: 201 to 204 °C (dec.)
